Assays:
Type in all cases: functional
Cavia porcellus [1] = species: Cavia porcellus; experiment: Evaluated for the open epicutaneous test and no. of animals showing erythema and swelling(2) by (+)4,5-Dimethyl-3-methylene-dihydro-furan-2-one sensitization in guinea pigs
Cavia porcellus [2] = species: Cavia porcellus; experiment: Evaluated for the open epicutaneous test and no. of animals showing erythema and swelling(2) by (-)4,5-Dimethyl-3-methylene-dihydro-furan-2-one sensitization in guinea pigs
Cavia porcellus [3] = species: Cavia porcellus; experiment: Evaluated for the open epicutaneous test and no. of animals showing erythema covering part (0.5) by (+)4,5-Dimethyl-3-methylene-dihydro-furan-2-one sensitization in guinea pigs
Cavia porcellus [4] = species: Cavia porcellus; experiment: Evaluated for the open epicutaneous test and no. of animals showing erythema covering part (0.5) by (-)4,5-Dimethyl-3-methylene-dihydro-furan-2-one sensitization in guinea pigs
Cavia porcellus [5] = species: Cavia porcellus; experiment: Evaluated for the open epicutaneous test and no. of animals showing erythema covering the whole (1) by (+)4,5-Dimethyl-3-methylene-dihydro-furan-2-one sensitization in guinea pigs
Cavia porcellus [6] = species: Cavia porcellus; experiment: Evaluated for the open epicutaneous test and no. of animals showing erythema covering the whole (1) by (-)4,5-Dimethyl-3-methylene-dihydro-furan-2-one sensitization in guinea pigs
Cavia porcellus [7] = species: Cavia porcellus; experiment: Evaluated for the open epicutaneous test and no. of animals showing no reaction (0) by (+)4,5-Dimethyl-3-methylene-dihydro-furan-2-one sensitization in guinea pigs
Cavia porcellus [8] = species: Cavia porcellus; experiment: Evaluated for the open epicutaneous test and no. of animals showing no reaction (0) by (-)4,5-Dimethyl-3-methylene-dihydro-furan-2-one sensitization in guinea pigs
Cavia porcellus [9] = species: Cavia porcellus; experiment: Number of positive animals showing sensitization to (+)4,5-Dimethyl-3-methylene-dihydro-furan-2-one in 8 guinea pigs was determined by open epicutaneous test for the compound
Cavia porcellus [10] = species: Cavia porcellus; experiment: Number of positive animals showing sensitization to (-)4,5-Dimethyl-3-methylene-dihydro-furan-2-one in 8 guinea pigs was determined by open epicutaneous test for the compound
Cavia porcellus [11] = species: Cavia porcellus; experiment: Mean reaction by (-)4,5-Dimethyl-3-methylene-dihydro-furan-2-one sensitization in guinea pigs was determined by open epicutaneous test fo the compound
Cavia porcellus [12] = species: Cavia porcellus; experiment: Mean reaction by (+)4,5-Dimethyl-3-methylene-dihydro-furan-2-one sensitization in guinea pigs was determined by open epicutaneous test fo the compound
Cavia porcellus [13] = species: Cavia porcellus; experiment: Number of positive animals showing sensitization to (-)4-Methyl-3-methylene-dihydro-furan-2-one in 6 guinea pigs was determined by open epicutaneous test for the compound
Cavia porcellus [14] = species: Cavia porcellus; experiment: Evaluated for the open epicutaneous test and no. of animals showing erythema and swelling(2) by (+)4-Methyl-3-methylene-dihydro-furan-2-one sensitization in guinea pigs
Cavia porcellus [15] = species: Cavia porcellus; experiment: Evaluated for the open epicutaneous test and no. of animals showing erythema and swelling(2) by (-)4-Methyl-3-methylene-dihydro-furan-2-one sensitization in guinea pigs
Cavia porcellus [16] = species: Cavia porcellus; experiment: Evaluated for the open epicutaneous test and no. of animals showing erythema covering part (0.5) by (-)4-Methyl-3-methylene-dihydro-furan-2-one sensitization in guinea pigs
Cavia porcellus [17] = species: Cavia porcellus; experiment: Evaluated for the open epicutaneous test and no. of animals showing erythema covering the whole (1) by (-)4-Methyl-3-methylene-dihydro-furan-2-one sensitization in guinea pigs
Cavia porcellus [18] = species: Cavia porcellus; experiment: Evaluated for the open epicutaneous test and no. of animals showing no reaction (0) by (+)4-Methyl-3-methylene-dihydro-furan-2-one sensitization in guinea pigs
Cavia porcellus [19] = species: Cavia porcellus; experiment: Number of positive animals showing sensitization to (+)4-Methyl-3-methylene-dihydro-furan-2-one in 6 guinea pigs was determined by open epicutaneous test for the compound
Cavia porcellus [20] = species: Cavia porcellus; experiment: Mean reaction by (-)4-Methyl-3-methylene-dihydro-furan-2-one sensitization in guinea pigs was determined by open epicutaneous test fo the compound
Cavia porcellus [21] = species: Cavia porcellus; experiment: Evaluated for the open epicutaneous test and no. of animals showing erythema covering part (0.5) by (+)4-Methyl-3-methylene-dihydro-furan-2-one sensitization in guinea pigs
Cavia porcellus [22] = species: Cavia porcellus; experiment: Evaluated for the open epicutaneous test and no. of animals showing erythema covering the whole (1) by (+)4-Methyl-3-methylene-dihydro-furan-2-one sensitization in guinea pigs
Cavia porcellus [23] = species: Cavia porcellus; experiment: Number of positive animals showing sensitization to (-)4-Methyl-3-methylene-dihydro-furan-2-one in 7 guinea pigs was determined by open epicutaneous test for the compound
Cavia porcellus [24] = species: Cavia porcellus; experiment: Evaluated for the open epicutaneous test and no. of animals showing no reaction (0) by (-)4-Methyl-3-methylene-dihydro-furan-2-one sensitization in guinea pigs
Cavia porcellus [25] = species: Cavia porcellus; experiment: Number of positive animals showing sensitization to (+)4-Methyl-3-methylene-dihydro-furan-2-one in 3 guinea pigs was determined by open epicutaneous test for the compound
Cavia porcellus [26] = species: Cavia porcellus; experiment: Mean reaction by (+)4-Methyl-3-methylene-dihydro-furan-2-one sensitization in guinea pigs was determined by open epicutaneous test fo the compound

C=C1C(=O)O[C@H](C)[C@H]1C
No. of animals (Cavia porcellus [1]): 0
No. of animals (Cavia porcellus [2]): 0
No. of animals (Cavia porcellus [3]): 5
No. of animals (Cavia porcellus [4]): 2
No. of animals (Cavia porcellus [5]): 1
No. of animals (Cavia porcellus [6]): 3
No. of animals (Cavia porcellus [7]): 2
No. of animals (Cavia porcellus [8]): 3
No. of positive animals (Cavia porcellus [9]): 6
No. of positive animals (Cavia porcellus [10]): 5
Mean reaction (Cavia porcellus [11]): 0.5
Mean reaction (Cavia porcellus [12]): 0.4

C=C1C(=O)O[C@@H](C)[C@@H]1C
No. of animals (Cavia porcellus [1]): 0
No. of animals (Cavia porcellus [2]): 0
No. of animals (Cavia porcellus [3]): 0
No. of animals (Cavia porcellus [4]): 3
No. of animals (Cavia porcellus [5]): 0
No. of animals (Cavia porcellus [6]): 5
No. of animals (Cavia porcellus [7]): 8
No. of animals (Cavia porcellus [8]): 0
No. of positive animals (Cavia porcellus [9]): 0
No. of positive animals (Cavia porcellus [10]): 8
Mean reaction (Cavia porcellus [11]): 0.8
Mean reaction (Cavia porcellus [12]): 0

C=C1C(=O)OC[C@H]1C
No. of positive animals (Cavia porcellus [13]): 0
No. of animals (Cavia porcellus [14]): 0
No. of animals (Cavia porcellus [15]): 0
No. of animals (Cavia porcellus [16]): 0
No. of animals (Cavia porcellus [17]): 0
No. of animals (Cavia porcellus [18]): 0
No. of animals (Cavia porcellus [8]): 6
No. of positive animals (Cavia porcellus [19]): 6
Mean reaction (Cavia porcellus [20]): 0
Mean reaction (Cavia porcellus [12]): 0.9
No. of animals (Cavia porcellus [21]): 1
No. of animals (Cavia porcellus [22]): 5

C=C1C(=O)OC[C@@H]1C
No. of positive animals (Cavia porcellus [23]): 7
No. of animals (Cavia porcellus [14]): 0
No. of animals (Cavia porcellus [15]): 5
No. of animals (Cavia porcellus [16]): 0
No. of animals (Cavia porcellus [17]): 2
No. of animals (Cavia porcellus [18]): 4
No. of animals (Cavia porcellus [24]): 0
No. of positive animals (Cavia porcellus [25]): 3
Mean reaction (Cavia porcellus [20]): 1.7
Mean reaction (Cavia porcellus [26]): 0.2
No. of animals (Cavia porcellus [21]): 3
No. of animals (Cavia porcellus [22]): 0

Reference: ChEMBL document CHEMBL1123630, “Stereospecificity in allergic contact dermatitis to simple substituted methylene lactone derivatives” (1987)
